Assay results taken from patent US11987588B2, “Modulators of the beta-3 adrenergic receptor useful for the treatment or prevention of heart failure and disorders related thereto” (Arena Pharmaceuticals, Inc., priority 2017, dated 2024).

Biological target: Beta-3 Adrenergic Receptor (Homo sapiens (Human), UniProt P13945)
Experiment: Homogeneous Time-Resolved Fluorescence (HTRF) cAMP antagonist assay, IC50 determination
Assay type: cell-based
Details: CHO-K1 cells stably expressing recombinant receptor, isoproterenol at EC90
In short: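 CHO-K1 cells stably expressing receptor, 1500 cells/well, preincubated briefly with 10-point 5-fold compound series (top final typically 10 or 100 μM) in PBS with 1 mM IBMX, then challenged with isoproterenol at EC90 for 1 h at room temperature. cAMP read by HTRF against on-plate standard curve; IC50 from dose-response.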

Beta-3 Adrenergic Receptor, sequence (P13945 whole entry, species assumed): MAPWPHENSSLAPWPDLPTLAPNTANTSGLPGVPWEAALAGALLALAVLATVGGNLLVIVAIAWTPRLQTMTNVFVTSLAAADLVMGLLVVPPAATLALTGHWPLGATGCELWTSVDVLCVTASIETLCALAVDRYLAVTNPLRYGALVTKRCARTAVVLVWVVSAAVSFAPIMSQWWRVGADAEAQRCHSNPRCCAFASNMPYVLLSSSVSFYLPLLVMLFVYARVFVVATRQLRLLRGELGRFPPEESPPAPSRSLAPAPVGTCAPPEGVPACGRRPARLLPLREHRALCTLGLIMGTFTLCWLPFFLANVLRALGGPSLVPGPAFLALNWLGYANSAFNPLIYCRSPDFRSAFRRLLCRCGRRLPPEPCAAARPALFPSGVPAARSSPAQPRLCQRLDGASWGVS

Structure (SMILES) | IC50
CNS(=O)(=O)c1cccc(OC[C@@H](O)CN[C@@H]2COC3(CCN(S(=O)(=O)c4cccc(-c5ccc(CNCCC(C)C)cc5)c4)CC3)C2)c1 [Compound 361, 3-((S)-2-hydroxy-3-((S)-8-(4′-((isopentylamino)methyl)biphenyl-3-ylsulfonyl)-1-oxa-8-azaspiro[4.5]decan-3-ylamino)propoxy)-N-methylbenzenesulfonamide] | 22.1 nM
CNS(=O)(=O)c1cccc(OC[C@@H](O)CN[C@H]2COC3(CCN(S(=O)(=O)c4cnc5[nH]cc(C(F)(F)F)c5c4)CC3)C2)c1 [Compound 509, 3-((S)-2-hydroxy-3-((R)-8-(3-(trifluoromethyl)-1H-pyrrolo[2,3-b]pyridin-5-ylsulfonyl)-1-oxa-8-azaspiro[4.5]decan-3-ylamino)propoxy)-N-methylbenzenesulfonamide] | 6.95 nM
CNS(=O)(=O)c1cccc(OC[C@@H](O)CNC2COC3(CCN(S(=O)(=O)c4ccc(C#N)cc4)CC3)C2)c1 (stereo partly drawn) [Compound 44, 3-((2S)-3-(8-(4-cyanophenylsulfonyl)-1-oxa-8-azaspiro[4.5]decan-3-ylamino)-2-hydroxypropoxy)-N-methylbenzenesulfonamide] | 34.1 nM
CNS(=O)(=O)c1cccc(OC[C@@H](O)CNC2COC3(CCN(S(=O)(=O)c4ccc(F)cc4Cl)CC3)C2)c1 (stereo partly drawn) [Compound 200, 3-((2S)-3-(8-(2-chloro-4-fluorophenylsulfonyl)-1-oxa-8-azaspiro[4.5]decan-3-ylamino)-2-hydroxypropoxy)-N-methylbenzenesulfonamide] | 22.2 nM
CNS(=O)(=O)c1cccc(OC[C@@H](O)CNC2COC3(CCN(S(=O)(=O)c4cc(C)cc(-c5ccc(CN)cc5)c4)CC3)C2)c1 (stereo partly drawn) [Compound 373, 3-((2S)-3-(8-(4′-(aminomethyl)-5-methylbiphenyl-3-ylsulfonyl)-1-oxa-8-azaspiro[4.5]decan-3-ylamino)-2-hydroxypropoxy)-N-methylbenzenesulfonamide] | 24.4 nM
CNS(=O)(=O)c1cccc(OC[C@@H](O)CNC2COC3(CCN(S(=O)(=O)c4ccc5c(c4)CCCO5)CC3)C2)c1 (stereo partly drawn) [Compound 41, 3-((2S)-3-(8-(chroman-6-ylsulfonyl)-1-oxa-8-azaspiro[4.5]decan-3-ylamino)-2-hydroxypropoxy)-N-methylbenzenesulfonamide] | 6.82 nM
Cc1ccc(F)c(S(=O)(=O)N2CCC3(CC2)CC(NC[C@H](O)COc2cccc(S(=O)(=O)N(C)C)c2)CO3)c1 (stereo partly drawn) [Compound 248, 3-((2S)-3-(8-(2-fluoro-5-methylphenylsulfonyl)-1-oxa-8-azaspiro[4.5]decan-3-ylamino)-2-hydroxypropoxy)-N,N-dimethylbenzenesulfonamide] | 40.5 nM
CCNS(=O)(=O)c1cccc(OC[C@@H](O)CNC2COC3(CCN(S(=O)(=O)c4cccc(-c5ccc(S(N)(=O)=O)cc5)c4)CC3)C2)c1 (stereo partly drawn) [Compound 211, 3′-(3-((S)-3-(3-(N-ethylsulfamoyl)phenoxy)-2-hydroxypropylamino)-1-oxa-8-azaspiro[4.5]decan-8-ylsulfonyl)biphenyl-4-sulfonamide] | 16.5 nM
CNS(=O)(=O)c1cccc(OC[C@@H](O)CNC2COC3(CCN(S(=O)(=O)c4ccc5cc(OC)ccc5c4)CC3)C2)c1 (stereo partly drawn) [Compound 169, 3-((2S)-2-hydroxy-3-(8-(6-methoxynaphthalen-2-ylsulfonyl)-1-oxa-8-azaspiro[4.5]decan-3-ylamino)propoxy)-N-methylbenzenesulfonamide] | 11.6 nM
CNS(=O)(=O)c1cccc(OC[C@@H](O)CN[C@@H]2COC3(CCN(S(=O)(=O)c4cccc(-c5ccc(CNC(C)C)cc5)c4)CC3)C2)c1 [Compound 359, 3-((S)-2-hydroxy-3-((S)-8-(4′-((isopropylamino)methyl)biphenyl-3-ylsulfonyl)-1-oxa-8-azaspiro[4.5]decan-3-ylamino)propoxy)-N-methylbenzenesulfonamide] | 17.9 nM
CNS(=O)(=O)c1cccc(OC[C@@H](O)CN[C@H]2COC3(CCN(c4ncccn4)CC3)C2)c1 [Compound 576, 3-((S)-2-hydroxy-3-((R)-8-(pyrimidin-2-yl)-1-oxa-8-azaspiro[4.5]decan-3-ylamino)propoxy)-N-methylbenzenesulfonamide] | 528 nM
CNS(=O)(=O)c1cccc(OC[C@@H](O)CNC2COC3(CCN(S(=O)(=O)c4ccc(OC(F)(F)F)cc4)CC3)C2)c1 (stereo partly drawn) [Compound 57, 3-((2S)-2-hydroxy-3-(8-(4-(trifluoromethoxy)phenylsulfonyl)-1-oxa-8-azaspiro[4.5]decan-3-ylamino)propoxy)-N-methylbenzenesulfonamide] | 31.7 nM
CN1CCOc2ccc(S(=O)(=O)N3CCC4(CC3)CC(NC[C@H](O)COc3cccc(S(=O)(=O)N(C)C)c3)CO4)cc21 (stereo partly drawn) [Compound 256, 3-((2S)-2-hydroxy-3-(8-(4-methyl-3,4-dihydro-2H-benzo[b][1,4]oxazin-6-ylsulfonyl)-1-oxa-8-azaspiro[4.5]decan-3-ylamino)propoxy)-N,N-dimethylbenzenesulfonamide] | 21.1 nM
CNS(=O)(=O)c1cccc(OC[C@@H](O)CN[C@H]2COC3(CCN(S(=O)(=O)c4ccc5nccn5c4)CC3)C2)c1 [Compound 537, 3-((S)-2-hydroxy-3-((R)-8-(imidazo[1,2-a]pyridin-6-ylsulfonyl)-1-oxa-8-azaspiro[4.5]decan-3-ylamino)propoxy)-N-methylbenzenesulfonamide] | 101 nM
CONS(=O)(=O)c1cccc(OC[C@@H](O)CNC2COC3(CCN(S(=O)(=O)c4ccc5ccccc5c4)CC3)C2)c1 (stereo partly drawn) [Compound 11, 3-((2S)-2-hydroxy-3-(8-(naphthalen-2-ylsulfonyl)-1-oxa-8-azaspiro[4.5]decan-3-ylamino)propoxy)-N-methoxybenzenesulfonamide] | 15.1 nM
CNS(=O)(=O)c1cccc(OC[C@@H](O)CN[C@H]2COC3(CCN(S(=O)(=O)c4cnc5[nH]cc(C#N)c5c4)CC3)C2)c1 [Compound 493, 3-((S)-3-((R)-8-(3-cyano-1H-pyrrolo[2,3-b]pyridin-5-ylsulfonyl)-1-oxa-8-azaspiro[4.5]decan-3-ylamino)-2-hydroxypropoxy)-N-methylbenzenesulfonamide] | 10.6 nM
CNS(=O)(=O)c1cccc(OC[C@@H](O)CN[C@H]2COC3(CCN(S(=O)(=O)c4cccc(-c5cccnc5)c4)CC3)C2)c1 [Compound 285, 3-((S)-2-hydroxy-3-((R)-8-(3-(pyridin-3-yl)phenylsulfonyl)-1-oxa-8-azaspiro[4.5]decan-3-ylamino)propoxy)-N-methylbenzenesulfonamide] | 25 nM
CNS(=O)(=O)c1cccc(OC[C@@H](O)CN[C@@H]2COC3(CCN(S(=O)(=O)c4ccc5ncccc5c4)CC3)C2)c1 [Compound 343, 3-((S)-2-hydroxy-3-((S)-8-(quinolin-6-ylsulfonyl)-1-oxa-8-azaspiro[4.5]decan-3-ylamino)propoxy)-N-methylbenzenesulfonamide] | 27.7 nM
CNS(=O)(=O)c1cccc(OC[C@@H](O)CNC2COC3(CCN(S(=O)(=O)c4cn[nH]c4)CC3)C2)c1 (stereo partly drawn) [Compound 131, 3-((2S)-3-(8-(1H-pyrazol-4-ylsulfonyl)-1-oxa-8-azaspiro[4.5]decan-3-ylamino)-2-hydroxypropoxy)-N-methylbenzenesulfonamide] | 84.7 nM
